Test system: C. pneumoniae strain AR-39 in HMEC-1 cells
Assay: Assay for growth (infectivity) enhancing activity: C. pneumoniae inclusion counts in HMEC-1 cell culture
Type: cell-based
Settings: for enhancement of growth of C. pneumoniae strain AR-39 in HMEC-1 cells: added to culture medium at 1, 5 and 10 ng/mL, 3 days incubation
Protocol: To assay for growth enhancing activity, conditioned medium, fractions of conditioned medium, insulin-like growth factor-1 (IGF-1) and IGF-2 were tested in HMEC-1 cell culture for enhanced susceptibility to C. pneumoniae. HMEC-1 cells were trypsinized from stock cultures and plated to achieve a cell monolayer in 24 h in 24-well culture plates. A 12 mm diameter glass coverslip was placed in each well for growing cells for ease of staining for microscopic observation and counting inclusions for assaying titers. For inoculation of cell culture, the culture fluid was removed and the cell monolayer washed three times with Hank's balanced salt solution. Two-tenth mL of inoculum were added per well and the plate was centrifuged for 1 h at 700 to 800× g at 25° C. After centrifugation, the inocula were removed, 1 mL of specified culture medium was added, and the plates were incubated in a CO2 incubator at 35° C. for 3 days. After incubation, coverslips were removed, fixed with methanol and stained with a Chlamydia genus-specific monoclonal antibody conjugated with fluorescein isothiocyanate. Inclusions were counted in 30 random fields at ×400 magnification. The infectivity titers were expressed as inclusion forming units (ifus) per milliliter, which had been adjusted for dilution factor and inoculum size (Furness et al., J. Gen Micro. 23:213-9, 1960). Triplicate coverslips were counted in each experiment. Experiments were repeated 2 or 3 times.
Characterization of Chlamydial growth enhancing factors was carried out as follows. Conditioned medium of a one day old culture of U937 cells in RPMI supplemented with 2% fetal calf serum was used. Conditioned medium was heated at 70° C. for 2 h and tested for growth enhancing activity against AR-39 in HMEC-1 cells. An equal volume of conditioned medium was mixed with fresh endothelial basal medium containing 2% fetal calf serum for culturing infected HMEC-1 cells.
For determining molecular size, one day old conditioned medium of U937 cells cultured in serum-free macrophage culture medium was fractionated into molecular weight ranges of larger than 30,000, 30,000 to 10,000, 10,000 to 5,000 and smaller than 5,000 using three different pore size filters, Biomax-30, Biomax-10 and Biomax-5 ultrafilters (Millipore, Bedford, Mass.) with the molecular weight cut-off of 30,000; 10,000; and 5,000, respectively. For size fractionation, a starting volume of 200 mL of conditioned medium was used. Each fraction was concentrated to 2 mL (a 100× concentration). The remaining filtrate which had been passed through the 5,000 molecular weight pore size filter also was saved for testing. That fraction and the starting conditioned medium were tested without concentration. […]

Substance	enhancement of growth of C. pneumoniae strain AR-39 in HMEC-1 cells	enhancing activity (increase) (0.5 ng/mL, p<0.05, N=3) [%]	enhancing activity (increase) (5 ng/mL, p<0.001) [%]
insulin-like growth factor-1 [IGF-1]	not	–	–
insulin-like growth factor-2 [IGF-2]	enhanced the growth	35	256

— patent publication US20030021782A1, “Chlamydia infection” (priority 2001, published 2003)
